Consider three compounds from US20260272881A1, “QTX125 DRUG FORMULATIONS” (Quimatryx, S.L., priority 2022, published 2026).

One series concerns rats, mice and dogs. The note with it: range of animal species including rats; cited from earlier work.
The test system of another series is mice. The note with it: cited from earlier work.
For series [1] the following is noted: acute toxicity studies; cited from earlier work.
Series [2] deals with multiple sclerosis mice models. The note with it: two different multiple sclerosis mice models; cited from earlier work.
The subject of a further series is lung cancer. The note with it: lung cancer xenograft murine model; cited from earlier work.
In a further series the test system is mantle cell lymphoma. The note with it: mantle cell lymphoma xenograft murine model; cited from earlier work.
A further series has as its system pancreatic cancer. The following applies: pancreatic cancer xenograft murine model; cited from earlier work.
The nature of series [3]: Genotoxicity (clastogenicity, aneugenicity).
For a further series, the target named is T1, HDAC 6 (Homo sapiens, UniProt Q9UBN7).
T1 sequence (Q9UBN7 1-1215): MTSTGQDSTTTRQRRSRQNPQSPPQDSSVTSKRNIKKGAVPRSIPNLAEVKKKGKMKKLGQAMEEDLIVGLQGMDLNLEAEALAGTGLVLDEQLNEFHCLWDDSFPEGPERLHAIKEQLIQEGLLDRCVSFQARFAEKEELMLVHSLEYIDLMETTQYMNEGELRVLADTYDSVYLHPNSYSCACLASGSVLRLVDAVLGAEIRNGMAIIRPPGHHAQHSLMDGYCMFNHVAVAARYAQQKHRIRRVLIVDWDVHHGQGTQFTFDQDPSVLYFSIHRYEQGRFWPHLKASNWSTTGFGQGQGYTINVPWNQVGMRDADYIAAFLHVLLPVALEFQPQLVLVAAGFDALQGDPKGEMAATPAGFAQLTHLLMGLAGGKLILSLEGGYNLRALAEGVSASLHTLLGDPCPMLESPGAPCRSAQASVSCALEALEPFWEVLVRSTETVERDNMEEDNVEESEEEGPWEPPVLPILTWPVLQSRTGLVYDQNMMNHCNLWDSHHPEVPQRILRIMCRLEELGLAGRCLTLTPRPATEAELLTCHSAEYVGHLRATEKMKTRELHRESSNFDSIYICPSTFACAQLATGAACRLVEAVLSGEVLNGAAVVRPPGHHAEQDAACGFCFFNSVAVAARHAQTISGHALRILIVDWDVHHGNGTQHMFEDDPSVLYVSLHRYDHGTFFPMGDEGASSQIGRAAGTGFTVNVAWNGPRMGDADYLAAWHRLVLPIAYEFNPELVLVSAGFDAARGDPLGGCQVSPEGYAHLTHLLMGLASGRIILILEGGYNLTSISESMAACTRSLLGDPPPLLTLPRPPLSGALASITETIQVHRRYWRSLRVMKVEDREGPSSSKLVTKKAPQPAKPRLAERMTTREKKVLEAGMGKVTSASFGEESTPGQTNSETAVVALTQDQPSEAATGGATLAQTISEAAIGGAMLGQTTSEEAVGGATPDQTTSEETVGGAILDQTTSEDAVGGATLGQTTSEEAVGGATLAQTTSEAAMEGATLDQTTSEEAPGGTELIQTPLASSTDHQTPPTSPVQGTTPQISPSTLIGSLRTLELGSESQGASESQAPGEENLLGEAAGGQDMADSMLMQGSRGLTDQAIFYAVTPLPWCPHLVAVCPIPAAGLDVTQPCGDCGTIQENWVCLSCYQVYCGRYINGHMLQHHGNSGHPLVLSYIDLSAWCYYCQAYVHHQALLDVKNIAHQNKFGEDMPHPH
The following applies: cited from earlier work.

Series [4] is described as follows: Solubility trials of QTX125 formulations (mixed 24 hours at room temperature). It is filed as physicochemical. The note with it: aqueous HPβCD solution (HPβCD as only excipient), aqueous with cosolvent or surfactant or cyclodextrin, thermodynamic from solid; with HPβCD alone (Example 1.3). How it is done:
The parameters required for the HPLC method used to determine the concentration of QTX125 in solution is set out below.
HPLC determination of the percentage of QTX125 in the solutions below was determined using the protocols set out above.
Assay (% LC) was determined by comparing the area of the peak for QTX125 to a calibration curve determined by running samples of known concentration of QTX125 (standards) on the HPLC.

Series [5] can be described thus: Solubility in water and stability in solution of QTX125 (background). It is filed as physicochemical.
For series [6] the following is noted: hydroxamic acids such as QTX125; cited from earlier work.
Series [7] can be described thus: Pharmacokinetic properties (half-lives, distribution volumes). The class given is in vivo. The note with it: compared with other histone deacetylase inhibitors.

Values after ≈ are worked out from the molar mass of the structure shown.

As for 2-hydroxypropyl-β-cyclodextrin, in the series with rats, mice and dogs, the tolerance entry is given as “well tolerated”.
For sulfobutyl ether β cyclodextrin [SBβCD], in the series on mice, the renal histopathology result is recorded as “no negative renal histopathology”. Further, the acute toxicity result in series [1] is “no observable effects”.
Take `O=C(NO)c1ccc(CNC(=O)c2[nH]c(-c3ccc(O)cc3)cc2-c2ccoc2)cc1` [QTX125, 3-(3-Furyl)-N-{4-[(hydroxyamino)carbonyl]benzyl}-5-(4-hydroxyphenyl)-1 Hpyrrole-2-carboxamide]: the efficacy result in series [2] is “high efficacy”. Also, the antitumoral efficacy entry in the series on lung cancer, in the series with mantle cell lymphoma and in the series on pancreatic cancer was “high antitumoral efficacy” throughout. The “genotoxicity, in particular clastogenicity or aneugenicity” value in series [3] is “no evidence of genotoxicity”. Besides, the “HDAC 6 inhibition” value at HDAC 6 was “highly selective and highly potent”. Moreover, the concentration in solution in series [4] (solubility at 24 h) was 140 µg/mL (≈ 335 µM). In series [5], the stability in solution result was “physical and chemical instability in solution”. Also, in [6], the solubility in water entry is “very low solubility in water”. Further, in [7], the “pharmacokinetic properties (half-lives and distribution volumes)” value was “higher half-lives and distribution volumes”.
